Patent US5105020A, “Cycloalkane derivatives” (Imperial Chemistries Industries PLC, priority 1988, dated 1992)

Assays:
5-LO [1] = experiment: Test c): ex vivo assay after oral administration, A23187 challenge of blood, LTB4 radioimmunoassay; type: in vivo
Method: c) An ex vivo assay system, which is a variation of test b) above, involving administration of a test compound (usually orally as the suspension produced when a solution of the test compound in dimethylsulphoxide is added to carboxymethylcellulose), blood collection, heparinisation, challenge with A23187 and radioimmunoassay of LTB4 and TxB2. This test provides an indication of the bioavailability of a test compound as an inhibitor of 5-LO or cyclooxygenase.

5-LO [2] = experiment: Test b): heparinised human blood, A23187 challenge, LTB4 radioimmunoassay; type: cell-based
Method: (§1) b) An in vitro assay system involving incubating a test compound with heparinised human blood, prior to challenge with the calcium ionophore A23187 and then indirectly measuring the inhibitory effects on 5-LO by assaying the amount of […] using the specific radioimmunoassay described by Carey and Forder (F. Carey and R.A. Forder, Brit. J. Pharmacol. 1985, 84, 34P) which involves the use of a protein-LTB4 conjugate produced using the procedure of Young et alia (Prostaglandins, 1983, 26(4), 605-613). The effects of a test compound on the enzyme cyclooxygenase (which is involved in the alternative metabolic pathway for arachidonic acid and gives rise to prostaglandins, thromboxanes and related metabolites) may be measured at the same time using the specific radioimmunoassay for thromboxane B2 (TxB2) described by Carey and Forder (see above). This test provides an indication of the effects of a test compound against 5-LO and also cyclooxygenase in the presence of blood cells and proteins. It permits the selectivity of the inhibitory effect on 5-LO or cyclooxygenase to be assessed.

cyclooxygenase = experiment: Test b): heparinised human blood, A23187 challenge, TxB2 radioimmunoassay; type: cell-based
Method: as §1

IC50 (5-LO [2]): 200 nM
IC50 (cyclooxygenase): > 40 µM
Structure (SMILES): CO[C@@H]1CCC[C@]1(OC)c1cccc(OCc2ccc3ccccc3c2)c1 (relative stereo) [trans-1,2-dimethoxy-1-[3-(naphth-2-ylmethoxy)phenyl]cyclopentane]
ED50 (5-LO [1]): < 100 mg/kg
